Experimental data reported in BigSolDB 2.1.

S=c1[nH]c2ccccc2s1
solubility (mole fraction)
Settings	in isobutanol	in isopropanol	in methanol	in n-butanol	in n-propanol	in toluene
273.15 K	–	0.00949	0.00733	0.0198	0.015	0.00192
275.65 K	–	0.0103	0.00795	0.0211	0.016	0.00205
278.15 K	–	0.0111	0.00868	0.0224	0.017	0.0022
280.65 K	–	0.0122	0.00946	0.0238	0.0181	0.00236
283.15 K	–	0.0134	0.0103	0.0252	0.0194	0.00254
285.65 K	–	0.0148	0.0111	0.0265	0.0205	0.00272
288.15 K	–	0.0161	0.0121	0.0281	0.0219	0.0029
290.65 K	–	0.0175	0.0131	0.0299	0.0232	0.0031
293.15 K	–	0.0192	0.0141	0.0314	0.0245	0.00333
295.65 K	–	0.0208	0.0153	0.0332	0.026	0.00354
298.15 K	–	0.0224	0.0164	0.0349	0.0277	0.00378
300.65 K	–	0.0242	0.0178	0.0368	0.029	0.00405
303.15 K	0.027	0.0261	0.0192	0.0386	0.0309	0.00427
305.65 K	0.0292	0.0282	0.0205	0.0405	0.0324	0.00454
308.15 K	0.0311	0.0305	0.022	0.0425	0.0342	0.00482
310.65 K	0.0336	0.0328	0.0235	0.045	0.036	0.0051
313.15 K	0.0361	0.0352	0.0252	0.0468	0.038	0.00544
315.65 K	0.0386	0.0378	0.0269	0.0489	0.04	0.00572
318.15 K	0.0411	0.0408	0.0289	0.0513	0.0421	0.00608
